Usually AC50 stands for the concentration giving half of the maximal activity seen.

Here are results for 8 molecules from ChEMBL document CHEMBL5291721, “A preclinical secondary pharmacology resource illuminates target-adverse drug reaction associations of marketed drugs” (Nat Commun, 2023).

The target of test [1] is Growth hormone secretagogue receptor type 1 (Homo sapiens, UniProt Q92847).
Test [2] deals with Histamine H1 receptor (Homo sapiens, UniProt P35367).
The target in test [3] is T1, Muscarinic acetylcholine receptor M2 (Homo sapiens, UniProt P08172).
T1 sequence (P08172 whole entry): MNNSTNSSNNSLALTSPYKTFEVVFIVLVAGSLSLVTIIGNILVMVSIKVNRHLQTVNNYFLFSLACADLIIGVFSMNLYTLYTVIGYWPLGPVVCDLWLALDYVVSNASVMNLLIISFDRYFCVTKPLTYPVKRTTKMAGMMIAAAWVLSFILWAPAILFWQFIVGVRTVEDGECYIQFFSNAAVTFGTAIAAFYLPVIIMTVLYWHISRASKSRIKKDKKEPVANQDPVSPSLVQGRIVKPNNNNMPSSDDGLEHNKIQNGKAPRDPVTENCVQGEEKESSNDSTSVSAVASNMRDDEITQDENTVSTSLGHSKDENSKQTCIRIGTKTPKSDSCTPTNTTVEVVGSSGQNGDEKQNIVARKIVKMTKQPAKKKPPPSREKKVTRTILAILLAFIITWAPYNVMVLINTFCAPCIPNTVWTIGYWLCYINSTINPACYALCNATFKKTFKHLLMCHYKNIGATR
The test is classed as functional, cell-based.

Test [4] deals with Adenosine receptor A2a (Homo sapiens, UniProt P29274).
The target in test [5] is Histamine H3 receptor (Homo sapiens, UniProt Q9Y5N1).
The target of test [6] is cGMP-inhibited 3',5'-cyclic phosphodiesterase 3A (Homo sapiens, UniProt Q14432). The test is classed as functional.
Test [7] concerns the target T1, Muscarinic acetylcholine receptor M2. The format is functional, cell-based. The source holds these as a separate data set.
Test [8] addresses Gamma-aminobutyric acid receptor subunit alpha-1 (Rattus norvegicus, UniProt P62813). The format is functional.
For test [9], the target named is T2, Cannabinoid receptor 1 (Homo sapiens, UniProt P21554). The format is functional, cell-based.
The target in test [10] is T3, Mu-type opioid receptor (Homo sapiens, UniProt P35372).
Test [11] addresses T4, Muscarinic acetylcholine receptor M1 (Homo sapiens, UniProt P11229).
T4 sequence (P11229 whole entry): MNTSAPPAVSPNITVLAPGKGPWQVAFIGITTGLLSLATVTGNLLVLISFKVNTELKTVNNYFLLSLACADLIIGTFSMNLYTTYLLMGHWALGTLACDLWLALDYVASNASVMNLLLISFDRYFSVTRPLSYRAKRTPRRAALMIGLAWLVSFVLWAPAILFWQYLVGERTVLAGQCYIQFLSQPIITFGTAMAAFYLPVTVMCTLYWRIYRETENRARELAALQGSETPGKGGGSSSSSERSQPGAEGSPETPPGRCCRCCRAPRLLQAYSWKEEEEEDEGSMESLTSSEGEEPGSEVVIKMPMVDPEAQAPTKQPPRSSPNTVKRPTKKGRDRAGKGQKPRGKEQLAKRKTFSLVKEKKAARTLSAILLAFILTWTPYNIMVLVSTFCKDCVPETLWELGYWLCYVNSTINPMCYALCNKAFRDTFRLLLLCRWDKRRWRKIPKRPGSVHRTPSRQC
The format is functional.

Test [12] deals with Beta-1 adrenergic receptor (Homo sapiens, UniProt P08588). The test is classed as functional.
Test [13] concerns the target Histamine H2 receptor (Homo sapiens, UniProt P25021). The format is functional, cell-based.
The target of test [14] is Glutamate receptor ionotropic, NMDA 1 (Rattus norvegicus, UniProt P35439).
In test [15] the target is T2, Cannabinoid receptor 1.
Test [16] has as its target 3',5'-cyclic-AMP phosphodiesterase 4D (Homo sapiens, UniProt Q08499). The format is functional.
The target of test [17] is T5, 5-hydroxytryptamine receptor 1A (Homo sapiens, UniProt P08908).
T5 sequence (P08908 whole entry): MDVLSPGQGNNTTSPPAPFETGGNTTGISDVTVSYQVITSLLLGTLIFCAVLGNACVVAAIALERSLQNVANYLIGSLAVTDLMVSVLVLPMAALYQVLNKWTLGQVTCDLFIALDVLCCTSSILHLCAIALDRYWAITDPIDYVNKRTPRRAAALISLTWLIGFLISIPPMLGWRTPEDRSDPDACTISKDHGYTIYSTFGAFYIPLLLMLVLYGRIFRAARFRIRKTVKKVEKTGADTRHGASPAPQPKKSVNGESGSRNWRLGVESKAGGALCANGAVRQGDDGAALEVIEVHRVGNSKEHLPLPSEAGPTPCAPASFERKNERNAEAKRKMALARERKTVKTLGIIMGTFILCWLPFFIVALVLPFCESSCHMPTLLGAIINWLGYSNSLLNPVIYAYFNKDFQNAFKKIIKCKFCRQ
The test is classed as functional, cell-based.

Test [18] has as its target Vasopressin V2 receptor (Homo sapiens, UniProt P30518).
The target of test [19] is Voltage-dependent L-type calcium channel subunit alpha-1C (Rattus norvegicus, UniProt P22002). The format is functional.
Test [20] addresses Vasopressin V1a receptor (Homo sapiens, UniProt P37288).
The target of test [21] is T3, Mu-type opioid receptor. As to the kind of experiment: biochemical. The test is classed as functional.

Molecules are shown by their SMILES.
Also: assay procedure not described here.

Vasopressin V1a receptor, sequence (P37288 whole entry): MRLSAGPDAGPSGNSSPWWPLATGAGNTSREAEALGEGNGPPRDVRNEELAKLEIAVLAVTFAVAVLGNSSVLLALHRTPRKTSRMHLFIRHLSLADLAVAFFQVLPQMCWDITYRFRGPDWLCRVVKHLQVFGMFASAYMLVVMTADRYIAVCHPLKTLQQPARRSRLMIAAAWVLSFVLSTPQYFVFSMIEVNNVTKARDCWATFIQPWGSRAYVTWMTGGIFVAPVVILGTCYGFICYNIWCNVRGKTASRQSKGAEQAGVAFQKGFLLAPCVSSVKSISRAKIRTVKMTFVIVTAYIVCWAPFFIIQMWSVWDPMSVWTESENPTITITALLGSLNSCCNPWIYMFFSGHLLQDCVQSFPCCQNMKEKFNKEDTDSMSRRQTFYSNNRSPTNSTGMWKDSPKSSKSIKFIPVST
Histamine H2 receptor, sequence (P25021 whole entry): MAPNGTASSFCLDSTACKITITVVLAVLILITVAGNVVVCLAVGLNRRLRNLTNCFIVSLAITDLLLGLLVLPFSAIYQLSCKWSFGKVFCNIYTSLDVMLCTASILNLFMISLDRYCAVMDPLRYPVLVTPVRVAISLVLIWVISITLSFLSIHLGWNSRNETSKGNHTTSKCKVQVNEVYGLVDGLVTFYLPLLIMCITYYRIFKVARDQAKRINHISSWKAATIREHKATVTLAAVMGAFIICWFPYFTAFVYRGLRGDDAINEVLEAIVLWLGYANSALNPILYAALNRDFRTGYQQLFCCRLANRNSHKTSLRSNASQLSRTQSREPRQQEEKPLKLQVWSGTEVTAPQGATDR
Gamma-aminobutyric acid receptor subunit alpha-1, sequence (P62813 whole entry): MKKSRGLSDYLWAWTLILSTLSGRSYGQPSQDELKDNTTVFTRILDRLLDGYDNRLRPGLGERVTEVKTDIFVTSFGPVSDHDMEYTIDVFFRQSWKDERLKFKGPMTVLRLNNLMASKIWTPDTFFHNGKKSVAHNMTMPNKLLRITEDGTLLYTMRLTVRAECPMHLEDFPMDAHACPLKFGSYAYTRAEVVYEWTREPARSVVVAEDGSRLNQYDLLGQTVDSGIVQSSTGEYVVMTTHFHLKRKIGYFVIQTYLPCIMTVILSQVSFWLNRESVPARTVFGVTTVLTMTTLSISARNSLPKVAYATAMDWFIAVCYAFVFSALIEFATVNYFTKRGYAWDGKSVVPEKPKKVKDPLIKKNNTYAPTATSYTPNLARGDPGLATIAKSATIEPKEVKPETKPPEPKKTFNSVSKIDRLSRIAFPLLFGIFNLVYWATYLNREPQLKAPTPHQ
Histamine H1 receptor, sequence (P35367 whole entry): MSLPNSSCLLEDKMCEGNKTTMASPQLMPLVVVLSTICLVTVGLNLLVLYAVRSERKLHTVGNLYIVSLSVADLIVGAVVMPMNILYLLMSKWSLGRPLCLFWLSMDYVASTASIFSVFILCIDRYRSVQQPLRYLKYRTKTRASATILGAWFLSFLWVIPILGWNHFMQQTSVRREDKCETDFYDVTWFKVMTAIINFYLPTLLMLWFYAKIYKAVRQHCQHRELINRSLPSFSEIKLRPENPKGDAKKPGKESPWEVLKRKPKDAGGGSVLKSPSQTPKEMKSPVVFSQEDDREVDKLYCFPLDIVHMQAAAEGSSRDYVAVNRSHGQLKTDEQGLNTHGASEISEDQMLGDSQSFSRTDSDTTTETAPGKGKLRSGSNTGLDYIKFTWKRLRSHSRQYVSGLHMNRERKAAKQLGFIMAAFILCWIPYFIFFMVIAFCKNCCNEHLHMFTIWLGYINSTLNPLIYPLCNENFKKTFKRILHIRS
cGMP-inhibited 3',5'-cyclic phosphodiesterase 3A, sequence (Q14432 whole entry): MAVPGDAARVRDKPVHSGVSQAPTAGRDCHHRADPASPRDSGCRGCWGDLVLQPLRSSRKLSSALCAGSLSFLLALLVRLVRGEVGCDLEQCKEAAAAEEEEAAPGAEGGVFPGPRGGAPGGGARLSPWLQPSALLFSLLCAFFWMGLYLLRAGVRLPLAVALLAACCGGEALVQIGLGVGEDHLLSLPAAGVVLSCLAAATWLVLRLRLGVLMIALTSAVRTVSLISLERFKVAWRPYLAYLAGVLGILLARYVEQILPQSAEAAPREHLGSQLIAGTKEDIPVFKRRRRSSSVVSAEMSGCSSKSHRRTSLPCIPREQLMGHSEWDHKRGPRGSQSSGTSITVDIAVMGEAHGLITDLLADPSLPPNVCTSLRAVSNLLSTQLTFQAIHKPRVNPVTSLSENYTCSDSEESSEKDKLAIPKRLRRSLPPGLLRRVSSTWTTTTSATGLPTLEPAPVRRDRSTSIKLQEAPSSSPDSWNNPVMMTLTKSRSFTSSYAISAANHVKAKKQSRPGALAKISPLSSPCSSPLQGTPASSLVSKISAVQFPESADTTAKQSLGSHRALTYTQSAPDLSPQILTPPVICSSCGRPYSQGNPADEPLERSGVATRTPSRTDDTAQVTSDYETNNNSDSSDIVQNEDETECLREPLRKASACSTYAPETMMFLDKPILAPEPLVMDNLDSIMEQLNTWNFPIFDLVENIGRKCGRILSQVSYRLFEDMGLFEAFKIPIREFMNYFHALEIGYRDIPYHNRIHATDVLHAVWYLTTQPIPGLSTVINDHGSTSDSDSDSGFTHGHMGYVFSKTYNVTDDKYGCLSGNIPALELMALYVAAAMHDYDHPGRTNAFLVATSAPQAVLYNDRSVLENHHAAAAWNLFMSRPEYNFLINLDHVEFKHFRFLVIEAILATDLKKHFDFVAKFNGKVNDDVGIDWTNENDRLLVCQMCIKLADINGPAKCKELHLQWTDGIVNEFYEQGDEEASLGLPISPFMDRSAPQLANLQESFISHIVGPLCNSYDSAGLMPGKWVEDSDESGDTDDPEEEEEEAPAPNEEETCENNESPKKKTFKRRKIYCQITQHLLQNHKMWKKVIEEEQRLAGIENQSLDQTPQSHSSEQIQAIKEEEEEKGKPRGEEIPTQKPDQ
3',5'-cyclic-AMP phosphodiesterase 4D, sequence (Q08499 whole entry): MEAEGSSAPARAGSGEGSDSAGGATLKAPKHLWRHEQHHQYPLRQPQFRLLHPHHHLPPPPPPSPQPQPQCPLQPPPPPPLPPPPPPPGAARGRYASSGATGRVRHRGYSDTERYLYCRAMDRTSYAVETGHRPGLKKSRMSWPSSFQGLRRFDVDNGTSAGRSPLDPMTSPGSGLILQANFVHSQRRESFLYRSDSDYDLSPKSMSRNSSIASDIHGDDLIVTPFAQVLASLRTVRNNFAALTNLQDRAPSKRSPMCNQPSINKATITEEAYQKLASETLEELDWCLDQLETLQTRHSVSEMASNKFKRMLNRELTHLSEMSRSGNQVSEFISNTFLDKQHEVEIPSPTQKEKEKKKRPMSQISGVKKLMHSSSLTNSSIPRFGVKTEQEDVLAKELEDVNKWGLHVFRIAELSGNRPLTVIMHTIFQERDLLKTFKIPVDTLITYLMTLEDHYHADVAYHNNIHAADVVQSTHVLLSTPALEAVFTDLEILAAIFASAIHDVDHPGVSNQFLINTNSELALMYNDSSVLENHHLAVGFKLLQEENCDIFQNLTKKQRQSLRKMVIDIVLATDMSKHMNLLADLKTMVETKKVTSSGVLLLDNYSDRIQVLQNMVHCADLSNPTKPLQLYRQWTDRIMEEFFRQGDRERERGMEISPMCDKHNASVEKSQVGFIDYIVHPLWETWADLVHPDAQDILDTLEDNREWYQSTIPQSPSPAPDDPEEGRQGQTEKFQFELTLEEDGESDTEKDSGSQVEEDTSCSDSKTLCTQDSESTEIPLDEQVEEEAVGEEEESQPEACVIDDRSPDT
T3 sequence (P35372 whole entry): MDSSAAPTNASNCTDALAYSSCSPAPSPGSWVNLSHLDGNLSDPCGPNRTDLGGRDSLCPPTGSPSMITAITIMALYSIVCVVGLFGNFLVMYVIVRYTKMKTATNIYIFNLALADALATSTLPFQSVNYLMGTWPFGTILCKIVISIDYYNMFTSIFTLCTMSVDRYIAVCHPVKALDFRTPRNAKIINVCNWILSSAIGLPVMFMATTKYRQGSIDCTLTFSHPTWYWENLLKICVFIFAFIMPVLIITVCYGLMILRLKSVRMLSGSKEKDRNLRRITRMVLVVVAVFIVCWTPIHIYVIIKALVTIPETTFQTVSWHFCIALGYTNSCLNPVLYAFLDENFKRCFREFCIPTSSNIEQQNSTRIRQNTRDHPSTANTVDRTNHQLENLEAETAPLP
Histamine H3 receptor, sequence (Q9Y5N1 whole entry): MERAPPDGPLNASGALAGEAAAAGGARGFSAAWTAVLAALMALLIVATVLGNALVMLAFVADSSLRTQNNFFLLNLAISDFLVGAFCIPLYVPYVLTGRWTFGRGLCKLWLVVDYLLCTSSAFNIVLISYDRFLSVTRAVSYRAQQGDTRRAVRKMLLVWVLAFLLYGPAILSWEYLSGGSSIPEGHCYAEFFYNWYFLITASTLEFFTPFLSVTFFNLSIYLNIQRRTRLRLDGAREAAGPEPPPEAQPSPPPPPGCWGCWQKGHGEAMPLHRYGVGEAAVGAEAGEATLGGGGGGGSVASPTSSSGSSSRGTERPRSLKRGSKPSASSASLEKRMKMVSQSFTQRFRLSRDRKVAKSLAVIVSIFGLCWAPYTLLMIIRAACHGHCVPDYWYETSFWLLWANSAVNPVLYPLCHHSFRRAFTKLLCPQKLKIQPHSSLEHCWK
Growth hormone secretagogue receptor type 1, sequence (Q92847 whole entry): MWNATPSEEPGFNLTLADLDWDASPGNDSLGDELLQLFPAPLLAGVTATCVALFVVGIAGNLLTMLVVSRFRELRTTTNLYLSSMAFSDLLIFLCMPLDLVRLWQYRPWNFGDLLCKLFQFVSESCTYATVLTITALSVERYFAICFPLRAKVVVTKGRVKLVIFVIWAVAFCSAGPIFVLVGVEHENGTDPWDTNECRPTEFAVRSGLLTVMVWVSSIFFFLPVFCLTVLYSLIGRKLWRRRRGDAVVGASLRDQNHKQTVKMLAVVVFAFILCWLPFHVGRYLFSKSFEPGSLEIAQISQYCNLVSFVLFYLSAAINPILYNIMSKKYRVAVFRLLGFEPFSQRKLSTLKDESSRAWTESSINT

With `CC(CN(C)C)C(C)(O)Cc1ccc(Cl)cc1` (stereo not given) [CLOBUTINOL], the AC50 in [1] was over 30 µM; in test [2], over 10 µM; in test [3] it was over 10 µM; in [4], over 30 µM; in test [5], over 10 µM; in test [6], over 30 µM. For the same molecule, the AC50 in [7] is over 10 µM; in test [8], over 10 µM; in test [9] it was over 30 µM; in test [10], over 30 µM; in test [11], over 10 µM; in [12], over 30 µM. The AC50 in [13] is over 10 µM; in test [14], over 10 µM; in [15] it was over 10 µM; in test [16], over 30 µM; in [17] it was over 10 µM; in test [18] it was over 30 µM. Besides, the AC50 in test [19] was over 10 µM.

Consider `C[C@@H]1C[C@H]2[C@@H]3CCC4=CC(=O)C=C[C@]4(C)[C@@]3(F)[C@@H](O)C[C@]2(C)[C@@]1(O)C(=O)CO` [DEXAMETHASONE], for which the AC50 is over 30 µM in test [1]; over 10 µM in [3]; over 30 µM in [4]; over 30 µM in test [5]; over 30 µM in test [6]; over 30 µM in [20]. In addition, the AC50 in test [7] is over 10 µM; in [8] it was over 10 µM; in test [10], over 30 µM; in [12], over 30 µM; in test [13], over 30 µM; in test [14] it was over 10 µM. The AC50 was over 10 µM in test [15]; over 30 µM in [16]; over 10 µM in test [17]; over 30 µM in [21]; over 30 µM in test [18]; over 10 µM in [19].

Regarding `CCCCOc1ccc(C(=O)CCN2CCCCC2)cc1` [DYCLONINE], the AC50 in test [1] was over 30 µM; in [2] it was 8.5 µM; in [3], over 10 µM; in test [4], over 30 µM; in test [5], 3.9 µM; in test [6], over 10 µM. The AC50 is over 10 µM in test [20]; over 10 µM in test [7]; over 10 µM in test [8]; over 30 µM in test [9]; over 10 µM in test [10]; over 10 µM in test [11]. The AC50 in test [12] was over 10 µM; in [13], over 10 µM; in test [14], over 10 µM; in test [15], over 10 µM; in [16], 11 µM; in [17], over 10 µM. The results for the AC50 in test [18] and in test [19] were over 30 µM and over 10 µM, respectively.

For the molecule `CCOC(=O)c1ncn2c1CN(C)C(=O)c1cc(F)ccc1-2` [FLUMAZENIL], the AC50 in test [1], in test [3], in test [4], in test [5], in test [6] and in test [7] was over 30 µM each time. For the same molecule, the AC50 in test [10], in test [12], in test [13], in test [14], in test [15] and in test [16] was over 30 µM throughout. For the same molecule, the AC50 in [17] was over 10 µM; in test [21] it was over 30 µM; in test [18], over 30 µM; in [19] it was over 30 µM.

As for `NNC(=O)c1ccncc1` [ISONIAZID], the AC50 in [1], in [3], in test [4], in [5], in test [6] and in [20] was over 30 µM in each case. Moreover, the AC50 in [7] was over 30 µM; in [8] it was over 30 µM; in test [9], over 30 µM; in test [10], over 30 µM; in [12], over 30 µM; in [13] it was over 10 µM. Further, the AC50 was over 30 µM in test [14]; over 30 µM in test [15]; over 30 µM in [16]; over 10 µM in test [17]; over 30 µM in test [21]; over 30 µM in [18]. Also, in [19], the AC50 is over 30 µM.

For the molecule `CCC(=O)O[C@](Cc1ccccc1)(c1ccccc1)[C@H](C)CN(C)C` [PROPOXYPHENE], the AC50 in [1] was over 30 µM; in [2], over 10 µM; in test [3], over 10 µM; in [4], over 30 µM; in test [5], over 10 µM; in test [6] it was over 30 µM. For the same molecule, the AC50 in test [20] is over 10 µM; in [7], over 10 µM; in [8], over 10 µM; in test [9], over 30 µM; in test [10] it was 0.693 µM; in test [11], over 10 µM. Besides, the AC50 in [12] was over 10 µM; in [13], over 10 µM; in test [14], over 10 µM; in [15], over 10 µM; in test [16], over 30 µM; in [17], over 10 µM. Besides, the AC50 in [21] was 0.17 µM; in test [18], over 30 µM; in test [19] it was over 10 µM.

As for `CCc1nc(N)nc(N)c1-c1ccc(Cl)cc1` [PYRIMETHAMINE], the AC50 in [1] is over 10 µM; in test [2], over 30 µM; in test [3], over 10 µM; in test [4], over 10 µM; in test [6], over 30 µM; in test [20], over 10 µM. Further, the AC50 is over 10 µM in test [7]; over 10 µM in test [8]; over 30 µM in [9]; over 30 µM in test [10]; over 30 µM in test [11]; over 10 µM in [12]. Further, the AC50 is over 30 µM in test [13]; over 10 µM in [14]; over 10 µM in [15]; 12 µM in test [16]; over 10 µM in test [17]; over 30 µM in test [21]. Also, the AC50 in test [18] and in test [19] was over 10 µM each time.

Consider `CCOC(=O)c1ccc(C#Cc2ccc3c(c2)C(C)(C)CCS3)nc1` [TAZAROTENE], for which the AC50 in test [1] was over 30 µM; in test [2] it was over 10 µM; in test [3] it was over 10 µM; in test [4], over 30 µM; in test [5] it was over 10 µM; in test [6], over 30 µM. Moreover, the AC50 in [7] was over 10 µM; in test [8], over 10 µM; in test [10] it was over 30 µM; in [11], over 10 µM; in test [12], over 10 µM; in [13], over 30 µM. Besides, the AC50 was over 10 µM in [14]; over 10 µM in test [15]; over 30 µM in [16]; over 30 µM in [18]; over 10 µM in test [19].
